The text below walks through data of US6946466B2, “Aromatic sulfonamides as peroxynitrite-rearrangement catalysts” (Schering AG, priority 2003, dated 2005).

One may read the IC50 as the point on the concentration scale where inhibition reaches its midpoint. Read a high IC50 as weaker potency in that assay.

Assay [1] is described as follows: Kinetics of the conversion of peroxynitrite into nitrate by UV spectrometry (stopped flow, 301 nm). The conditions noted are these: peroxynitrite rearrangement relative to spontaneous decomposition without catalyst; catalyst added in one-tenth the stoichiometric amount; UV 301 nm. In kind it is biochemical. On the procedure:
Measurement of the Kinetics of the Conversion of Peroxynitrite into Nitrate by UV Spectrometry
The following are used: a UV spectrometer • a stopped flow device with slotted-on cuvette laboratory apparatus for volumetric work reagents (buffers, peroxynitrite solution, catalysts)
The peroxynitrite content of the concentrated peroxynitrite solution is determined. A molar extinction coefficient of ε=1 670 is used as basis. The solution is diluted with water to reach an absorption of about 1.6 at the observation wavelength of 301 nm. The pH of the stock solution produced in this way should not fall below 11.
A solution of the catalyst to be investigated is prepared in phosphate buffer appropriate for the peroxynitrite concentration set, in such a way that, taking account of the given conditions in the stopped flow device, the desired amounts of catalyst solution and peroxynitrite can be brought together for reaction. The buffer of the catalyst solution must have sufficient capacity for it to be possible for the peroxynitrite solution, which is still strongly alkaline, to be adjusted to, and maintained at, the desired pH. The catalysts are added in one-tenth the stoichiometric amount (FIG. 1).
The metering syringes of the stopped flow system are charged with the two solutions and used to charge the cuvette which is present in the UV spectrometer. The absorptions at 301 nm are measured simultaneously. The rearrangement of peroxynitrite to nitrate results in the decrease in the absorption, which assumes a constant value after some time. The rearrangement is complete at this time, and the data recording is stopped.
The measured data are analyzed, and the peroxynitrite concentration can be calculated from the characteristic kinetic data of the plot resulting therefrom. […] In order to take account of the spontaneous decomposition of peroxynitrite, for each peroxynitrite preparation used initially the decomposition behavior of the peroxynitrite solution is found on addition of the buffer without catalyst content, and the relation between the characteristic data thereof and those obtained from a measurement with catalyst is found. [formula]

Assay [2] is described as follows: DHR oxidation assay (oxidation of dihydrorhodamine to rhodamine by peroxynitrite). In kind it is biochemical. Particulars: rhodamine fluorescence 485/520 nm, neutral pH. As for the experimental part:
Oxidation of Dihydrorhodamine to Rhodamine
The concentration of peroxynitrite is determined by reaction with dihydrorhodamine (DHR) to give rhodamine. The rhodamine fluorescence emission is measured at 520 nm after excitation with light of a wavelength of 485 nm. Catalytic conversion of peroxynitrite by a test substance leads to a decrease in the peroxynitrite concentration and thus also to a decrease in the rhodamine fluorescence, because less DHR can be converted into rhodamine. The search for peroxynitrite-degrading catalysts is carried out at neutral pH. Peroxynitrite is stable for only a few seconds at neutral pH. It is therefore necessary for peroxynitrite to be kept alkaline until contacted with the test substance and DHR as detection reagent. The search for catalysts takes place by rapid mixing of the following components:
10 μl of 10 μM DHR; • 100 μm diethylenetriaminepentaacetic acid in 75 mM Na phosphate buffer at pH 5.6
5 μl of peroxynitrite in 9 mM NaOH
0.75 μl test substance in 30% DMSO/H2O
The measurement takes place in a standard microtiter plate fluorescence measuring apparatus

Assay [3] relates to primary neuronal cultures from neonatal rat cerebellum. The assay can be described thus: SIN-1 damage assay with primary neuronal cultures from neonatal rat cerebellum (Cytotoxicity assay). The assay is classed as cell-based. Particulars: protection against SIN-1 damage, test substance 1 h before SIN-1, Alamar blue readout, read-out: Cytotoxicity assay ED50. From the text: SIN-1 Damage Assay with Primary Neuronal Cultures from Neonatal Rat Cerebellum
A primary culture of cells from neonatal rat cerebellum is set up for in vitro testing of substances for neuroprotection against damage induced by peroxy-nitrite. The measurement of cell death or survival of neurons in this culture takes place indirectly through a measurement of the conversion of the dye Alamar blue into its reduced fluorescent form. The peroxynitrite donor SIN-1 (3-morpholinosydnonimine) is used for the damage.
To obtain the cells, Wistar rats (P8) are sacrificed by decapitation, the cerebella are obtained, the meninges are removed from the cerebellum (HBSS (GIBCO, 14025-050) 4° C.), cut up and transferred into a 15 ml Falcon tube, the supernatant is aspirated off, and then the cerebella are trypsinized by adding 500 μl of trypsin/EDTA solution (GIBCO #2530-054)/cerebellum. After incubation (20 min, 37° C.), the trypsinized cerebella are washed 3× with 10 ml of HBSS. This is followed by tritration by addition of 500 μl of 0.05% strength DNAsel (BOEHRINGER MANNHEIM, #14953000) per cerebellum. Using a 5 ml pipette, then a flame-polished Pasteur pipette and finally (if necessary) a drawn-out flame-polished Pasteur pipette, the cells are isolated and mixed with 10 ml of complete medium (100 ml of Neurobasal (GIBCO #21103-049), 1 ml of B27 supplement (GIBCO #17504-044), 0.4 ml of pen/strep (10 000 IU/ml/10 000 UG/ml) (GIBCO #15140-160), 0.8 ml of KCl stock solution (MERCK, 1.04936.0500), 1 ml of L-glutamine (100×-200 mM) (GIBCO #15140-106). The isolated cells are then centrifuged (10 min at 600 rpm), washed 1× with complete medium and resuspended in 20 ml of complete medium, counted and diluted to 2×10^6 ml. 100 μl of complete medium are introduced into each well of a 96-well microtiter plate, and 100 μl of cell suspension are added (=day 1 in vitro). The microtiter plates are previously coated in the following way: 50 μl of poly-L-lysine (MW 70-105 kD) (SIGMA #P-6282) are applied to each well, and the plates are then incubated in an incubator for about 90 min. Before the cells are plated out, the solution is aspirated off again and washed 2× with HBSS and with sterile double-distilled water. 24 h after plating out, the cells are damaged by addition of SIN-1. Test substances are applied 1 h before addition of SIN-1 (single concentration of 10 or 30 μm, or as concentration series, CALBIOCHEM, 567028). Cell function is measured on day 2 (day2 in vitro) with Alamar blue (10 μl/well) (BIOSOURCE INT., DAL1100). Incubation for 3 hours is followed by measurement in a fluorescence reader (Victor, Wallac, extinction 544 nm/emission 590 nm). IC50 values are calculated by the Excel plug-in XLfit.
On the technique in general: Alamar Blue is a resazurin reagent that responds to reducing activity.

Molecules are shown by their SMILES.

For the molecule `O=S(=O)(Nc1ccc(N2CCCCC2)cc1)c1cccc2cccnc12` [Example 4, quinoline-8-sulfonic acid 4-piperidin-1-ylphenylamide], the Rate constant in assay [1] worked out at 1.4. In assay [2], this molecule yielded an IC50 of 1.1 µM. For the same molecule, the EC50 in assay [3] stood at 8.7 µM.
As for `Cc1noc(C)c1S(=O)(=O)Nc1ccc(N2CCCC2)cc1C(F)(F)F` [Example 2, 3,5-dimethylisoxazole-4-sulfonic acid 4-pyrrolidin-1-yl-2-trifluoromethylphenylamide], in assay [1], the Rate constant stood at 1.3. Half-maximal inhibition in assay [2] (IC50) required 2.4 µM. The EC50 in assay [3] turned out to be 6.6 µM.
In turn, `Cc1noc(C)c1S(=O)(=O)Nc1ccc(N2CCCCC2)cc1` [Example 3, 3,5-dimethylisoxazole-4-sulfonic acid 4-piperidin-1-ylphenylamide] came in with a Rate constant in assay [1] of 1.4. Besides, the IC50 in assay [2] turned out to be 0.95 µM. Moreover, the EC50 in assay [3] is 5.3 µM.
For `Cc1noc(C)c1S(=O)(=O)Nc1ccc(N2CCCC2)cc1` [Example 1, 3,5-dimethylisoxazole-4-sulfonic acid 4-pyrrolidin-1-ylphenylamide] the same measures were 1.1, 1.1 µM and 4.4 µM.
Consider `O=S(=O)(Nc1ccc(N2CCCC2)cc1)c1cccc2cccnc12` [Example 6, quinoline-8-sulfonic acid 4-pyrrolidin-1-ylphenylamide], for which the Rate constant in assay [1] came out at 1.2. For the same molecule, inhibition in assay [2] was half-maximal at 1.5 µM (IC50). Moreover, the EC50 in assay [3] came to 5.2 µM.
In turn, `COc1cc(N2CCCC2)ccc1NS(=O)(=O)c1cccs1` [Example 5, thiophene-2-sulfonic acid 2-methoxy-4-pyrrolidin-1-ylphenylamide] had a Rate constant in assay [1] of 1.9. The molecule also displayed an IC50 in assay [2] of 8.1 µM. Further, the EC50 in assay [3] came to 5.9 µM.
In the case of `Cc1noc(C)c1S(=O)(=O)Nc1ccc(N(C)C)cc1[N+](=O)[O-]` [Example 9, 3,5-dimethylisoxazole-4-sulfonic acid 4-dimethylamino-2-nitrophenylamide], in assay [1], the Rate constant is 1.6. This molecule came in with an IC50 in assay [2] of 2 µM. In assay [3], the EC50 was determined as 8.6 µM.
On to `CN(C)c1ccc(NS(=O)(=O)c2cccs2)c([N+](=O)[O-])c1` [Example 8, thiophene-2-sulfonic acid 4-dimethylamino-2-nitrophenylamide], for which the Rate constant in assay [1] is on record as 1.6. Moreover, half-maximal inhibition in assay [2] (IC50) required 1.6 µM. Also, in assay [3], the EC50 is 6.4 µM.
The molecule `CN1CCN(c2ccc(NS(=O)(=O)c3cccs3)cc2)CC1` [Example 7, thiophene-2-sulfonic acid 4-(4-methyl-piperazin-1-yl)phenylamide] registered a Rate constant in assay [1] of 1.3. The same molecule displayed an IC50 in assay [2] of 1.9 µM. Further, the EC50 in assay [3] amounted to 5.7 µM.
